Results published in the PolyMetriX glass transition set.

## *c1ccc(CC(=O)Nc2ccc(S(=O)(=O)c3ccc(NC(=O)Cc4ccc(-c5sc(*)c(-c6ccccc6)c5-c5ccccc5)cc4)cc3)cc2)cc1 (repeat unit)
  glass transition temperature: 252.00 °C

## *COC(=O)OCC1OC(OCC)(OCC)OC1* (repeat unit)
  glass transition temperature: 10.80 °C

## *CC(OCC(C)C)C1C(=O)OC(=O)C1* (repeat unit)
  glass transition temperature: 145.00 °C

## *CCSCc1ccc(Cc2ccc(CSCCOC(=O)CSCc3ccc(Cc4ccc(CSCC(=O)O*)cc4)cc3)cc2)cc1 (repeat unit)
  glass transition temperature: 14.00 °C

## *CC(*)C(=O)Oc1ccc(C(=O)OCc2ccccc2)cc1 (repeat unit)
  glass transition temperature: 16.2 °C

## *c1ccc(NC(=O)c2ccc(OCCOc3ccc(C(=O)Nc4ccc5[nH]c(*)nc5c4)cc3)cc2)cc1 (repeat unit)
  glass transition temperature: 225.00 °C

## *Oc1ccc(Oc2ccc(Oc3ccc(NC(=O)c4cc(C(=O)Nc5ccc(*)cc5)cc(C(C)(C)C)c4)cc3)cc2)cc1 (repeat unit)
  glass transition temperature: 230.00 °C

## *CCCCCCCCCCOC(=O)O* (repeat unit)
  glass transition temperature: -37.00 °C

## *c1ccc(Oc2ccccc2Oc2ccc(N3C(=O)c4ccc(S(=O)(=O)c5ccc6c(c5)C(=O)N(*)C6=O)cc4C3=O)cc2C(F)(F)F)c(C(F)(F)F)c1 (repeat unit)
  glass transition temperature: 255.00 °C

## *O[Si](*)(C)CCCCCCCCCCCOc1ccc(-c2ccc(C(=O)Oc3ccc(C(=O)OC(C)C(=O)OC(C)C(=O)OCC(C)CC)cc3)cc2)cc1 (repeat unit)
  glass transition temperature: 20.00 °C

## *Oc1ccc(S(=O)(=O)c2ccc(Oc3ccc(C(=C)c4ccc(*)cc4)cc3)cc2)cc1 (repeat unit)
  glass transition temperature: 167.00 °C

## *Oc1ccc(C(C)(C)c2ccc(Oc3cccc(*)n3)cc2)cc1 (repeat unit)
  glass transition temperature: 107.00 °C

## *CC(*)C(=O)OCCCn1c2ccccc2c2ccccc21 (repeat unit)
  glass transition temperature: 83.00 °C

## *c1ccc(C2(c3ccc(-c4cc(-c5ccccc5)c5cc(C6(c7ccc8nc(*)cc(-c9ccccc9)c8c7)c7ccccc7-c7ccccc76)ccc5n4)cc3)c3ccccc3C(=O)c3ccccc32)cc1 (repeat unit)
  glass transition temperature: 385.00 °C

## *c1ccc(Oc2c(C)cc(C(c3cccnc3)c3cc(C)c(Oc4ccc(N5C(=O)CC(Nc6cccc(NC7CC(=O)N(*)C7=O)c6)C5=O)cc4)c(C)c3)cc2C)cc1 (repeat unit)
  glass transition temperature: 217.00 °C

## *c1ccc(Oc2ccc(-c3cc(-c4ccccc4)c4cc(Oc5ccc6nc(*)c(-c7ccccc7)c(-c7ccccc7)c6c5)ccc4n3)cc2)cc1 (repeat unit)
  glass transition temperature: 305.00 °C

## */C=C/CCCCCCCCCC(Cl)CCCCCCCCC* (repeat unit)
  glass transition temperature: -37.00 °C

## *c1ccc(Oc2ccc(Oc3ccc(-n4c(=O)c5cc6c(=O)n(*)c(=O)c6cc5c4=O)cc3)cc2C(C)(C)C)cc1 (repeat unit)
  glass transition temperature: 314.00 °C

## *c1c(C)cc(C(c2cccc(C(F)(F)F)c2)c2cc(C)c(N3C(=O)c4ccc(Oc5ccc6c(c5)C(=O)N(*)C6=O)cc4C3=O)c(C)c2)cc1C (repeat unit)
  glass transition temperature: 264.10 °C

## *C(=O)c1ccc2c(c1)C(=O)N(c1ccc(-c3nc(-c4ccccc4)nc(-c4ccc(N5C(=O)c6ccc(*)cc6C5=O)cc4)n3)cc1)C2=O (repeat unit)
  glass transition temperature: 355.00 °C

## *C(=O)Nc1ccc(Oc2ccccc2-c2ccccc2Oc2ccc(NC(=O)c3ccc4c(c3)C(=O)N(c3ccc(Oc5ccc(S(=O)(=O)c6ccc(Oc7ccc(N8C(=O)c9ccc(*)cc9C8=O)cc7)cc6)cc5)cc3)C4=O)cc2)cc1 (repeat unit)
  glass transition temperature: 236.00 °C

## *Oc1c([2H])c([2H])c(S(=O)(=O)c2c([2H])c([2H])c(Oc3c([2H])c([2H])c(C(c4c([2H])c([2H])c(*)c([2H])c4[2H])(C([2H])([2H])[2H])C([2H])([2H])[2H])c([2H])c3[2H])c([2H])c2[2H])c([2H])c1[2H] (repeat unit)
  glass transition temperature: 175.00 °C

## *c1cccc(N2C(=O)c3ccc(C(c4ccc5c(c4)C(=O)N(c4cccc(-n6c(=O)c7cc8c(=O)n(*)c(=O)c8cc7c6=O)c4)C5=O)(C(F)(F)F)C(F)(F)F)cc3C2=O)c1 (repeat unit)
  glass transition temperature: 338.00 °C

## *Nc1ccc(-c2ccc(NC(=O)c3cccc(C(*)=O)c3)cc2)cc1 (repeat unit)
  glass transition temperature: 294.00 °C

## *Oc1ccc(Oc2ccc(P(C)(=O)c3ccc(*)cc3)cc2)cc1 (repeat unit)
  glass transition temperature: 213.00 °C

## *c1ccc(Oc2cccc(-c3cc(-c4ccccc4)cc(-c4cccc(Oc5ccc(-n6c(=O)c7cc8c(=O)n(*)c(=O)c8cc7c6=O)cc5)c4)n3)c2)cc1 (repeat unit)
  glass transition temperature: 264.00 °C

## *c1ccc(C(c2ccc(-c3cc(-c4ccccc4)c4cc(Oc5ccc6nc(*)cc(-c7ccccc7)c6c5)ccc4n3)cc2)(C(F)(F)F)C(F)(F)F)cc1 (repeat unit)
  glass transition temperature: 260.00 °C

## *c1ccc(Cc2ccc(N3C(=O)C(C)C(SCCOCCSC4C(=O)N(c5ccc(Cc6ccc(N7C(=O)CC(C)(SCCOCCSC8(C)CC(=O)N(*)C8=O)C7=O)cc6)cc5)C(=O)C4C)C3=O)cc2)cc1 (repeat unit)
  glass transition temperature: 105.00 °C

## *Oc1ccc(CC(NC(=O)CCc2ccc(OC(=O)CCC(*)=O)cc2)C(=O)OCCCCCCCCCCCC)cc1 (repeat unit)
  glass transition temperature: 40.00 °C

## *CC(*)c1ccc(B(Oc2cccc3cccnc23)c2ccc(C(C)(C)C)cc2)cc1 (repeat unit)
  glass transition temperature: 240.00 °C

## *CC(F)(F)C1(F)CC(C(O)(C(F)(F)F)C(F)(F)F)CC1* (repeat unit)
  glass transition temperature: 118.00 °C

## *C(F)(F)C1(*)OC(F)(F)C(F)(C(F)(F)F)O1 (repeat unit)
  glass transition temperature: 135.00 °C
